Each structure is given as a SMILES string. Where “and” joins values, the source holds several entries; their conditions need not be identical. Equal values may be shown once.

The first data set can be described thus: solvent given as SMILES. Particulars: in C1CCCCC1.
On to `c1ccc(N(c2ccccc2)c2ccc(-c3nc(-c4ccc(N(c5ccccc5)c5ccccc5)cc4)c4ccccc4n3)cc2)cc1`, for which the emission maximum is recorded as 447 nm.

As for `Cc1ccc(C2=C3C=CC(c4ccccc4)=[N+]3[B-](F)(F)n3c(Cl)ccc32)cc1`, the emission maximum came to 553 nm.

`COc1ccc(/C=N/c2cc(C(C)C)c(O)cc2C)cc1` displayed an emission maximum of 404 nm.

Compound `CN(C)CCN(Cc1c2ccccc2cc2ccccc12)c1ccc([N+](=O)[O-])cc1` yielded an emission maximum of 411 nm.

Staying with this data set, now noted: in C1CCOC1.
Compound `COc1ccc2c(c1)CCc1c-2nc(N)c(C#N)c1-c1ccc(Br)cc1` had an emission maximum of 403 nm.

For `c1ccc(N(c2ccccc2)c2ccc(-c3nc(-c4ccc(N(c5ccccc5)c5ccccc5)cc4)c4ccccc4n3)cc2)cc1`, the emission maximum amounted to 518 nm.

The compound `N#CC1=c2c3cccc4cccc(c43)n2[B-](F)(F)[n+]2ccccc21` had an emission maximum of 530 nm.

`Cc1ccc(/C=C/C(F)(F)F)c(N)c1` had an emission maximum of 423 nm.

In turn, `c1ccc2nc3cccc(-c4ccc(-n5c6ccccc6c6ccccc65)cc4)c3cc2c1` returned an emission maximum of 466 nm.

`Cc1ccc(C2=C3C=CC(c4ccccc4)=[N+]3[B-](F)(F)n3c(Cl)ccc32)cc1` returned an emission maximum of 555 nm.

Regarding `COc1ccc(/C=N/c2cc(C(C)C)c(O)cc2C)cc1`, the emission maximum stood at 408 nm.

Regarding `CCN1C(=O)C(C2C(=O)c3c4ccccc4cc4cc5ccccc5c2c34)C(=O)N(CC)C1=S` (configuration not stated), the emission maximum stood at 571 nm.

Turning to `CN(C)CCN(Cc1c2ccccc2cc2ccccc12)c1ccc([N+](=O)[O-])cc1`, the emission maximum worked out at 414 nm.

For `Cc1cc(C)c2c(c1)c1cc(C)cc(C)c1n2-c1ccc2c(c1)B(c1c(C(C)C)cc(C(C)C)cc1C(C)C)c1cc(-n3c4c(C)cc(C)cc4c4cc(C)cc(C)c43)ccc1N2c1ccccc1`, the emission maximum stood at 447.96 nm.

The same data set, now with this note: in C1COCCO1.
`COc1ccc2c(c1)CCc1c-2nc(N)c(C#N)c1-c1ccc(Br)cc1` displayed an emission maximum of 412 nm.

Consider `Cc1ccc(C2=C3C=CC(c4ccccc4)=[N+]3[B-](F)(F)n3c(Cl)ccc32)cc1`, for which the emission maximum was determined as 554 nm.

On to `COc1ccc(/C=N/c2cc(C(C)C)c(O)cc2C)cc1`, for which the emission maximum came to 407 nm.

`CCCCN(CCCC)c1ccc(/C=C/c2ccc3nc(/C=C/c4nc5ccc(/C=C/c6ccc(N(CCCC)CCCC)cc6)cc5n(CCC)c4=O)c(=O)n(CCC)c3c2)cc1` showed an emission maximum of 630 nm.

Still in this data set, the particulars now being: in CC1CCCO1.
For `c1ccc2c(c1)-c1ccccc1C21c2ccccc2-c2ccncc21`, the emission maximum stood at 348 nm.

The same data set, now with this note: in CC#N.
`COc1ccc2c(c1)CCc1c-2nc(N)c(C#N)c1-c1ccc(Br)cc1` came in with an emission maximum of 408 nm.

With `Oc1ccccc1/C=N/c1ccccc1/N=C/c1ccccc1O`, the emission maximum is 545 nm and 458 nm.

`c1ccc(N(c2ccccc2)c2ccc(-c3nc(-c4ccc(N(c5ccccc5)c5ccccc5)cc4)c4ccccc4n3)cc2)cc1` yielded an emission maximum of 565 nm.

Compound `N#CSC1=CC2=C(c3c(Cl)cccc3Cl)c3cc(SC#N)c(NCc4ccccc4)n3[B-](F)(F)[N+]2=C1NCc1ccccc1` came in with an emission maximum of 648 nm.

`N#CC1=c2c3cccc4cccc(c43)n2[B-](F)(F)[n+]2ccccc21`: the emission maximum is recorded as 527 nm.

`c1ccc2nc3cccc(-c4ccc(-n5c6ccccc6c6ccccc65)cc4)c3cc2c1`: the emission maximum stood at 527 nm.

With `O=c1oc2ccccc2c(O)c1C(CC(O)c1ccc(-c2ccc(Br)cc2)cc1)c1ccccc1` (configuration not stated), the emission maximum is 403 nm.

As to `COc1ccc(/C=N/c2cc(C(C)C)c(O)cc2C)cc1`, the emission maximum is given as 411 nm.

For the compound `CCOC(=O)c1c(C=Cc2ccccc2)oc(NC2CCCCC2)c1C(=O)OCC`, the emission maximum is 460 nm.

In turn, `CN(C)CCN(Cc1c2ccccc2cc2ccccc12)c1ccc([N+](=O)[O-])cc1` yielded an emission maximum of 389 nm.

Still in this data set, the particulars now being: in CC(C)(C)O.
For the compound `COc1ccc(/C=N/c2cc(C(C)C)c(O)cc2C)cc1`, the emission maximum is on record as 411 nm.

The same data set, now with this note: in CC(C)=O.
Turning to `c1ccc2nc3cccc(-c4ccc(-n5c6ccccc6c6ccccc65)cc4)c3cc2c1`, the emission maximum worked out at 497 nm.

`CN(C)CCN(Cc1c2ccccc2cc2ccccc12)c1ccc([N+](=O)[O-])cc1` gave an emission maximum of 387 nm.

Staying with this data set, now noted: in CC(C)O.
The compound `COc1ccc(/C=N/c2cc(C(C)C)c(O)cc2C)cc1` returned an emission maximum of 413 nm.

The same data set, now with this note: in CC(C)OC(C)C.
In turn, `c1ccc2nc3cccc(-c4ccc(-n5c6ccccc6c6ccccc65)cc4)c3cc2c1` yielded an emission maximum of 444 nm.

Staying with this data set, now noted: in CCCCCC.
On to `COc1ccc2c(c1)CCc1c-2nc(N)c(C#N)c1-c1ccc(Br)cc1`, for which the emission maximum was 392 nm.

With `CC(C)[Si](C#Cc1c2ccccc2c(C#C[Si](C(C)C)(C(C)C)C(C)C)c2nc3c(nc12)Cc1ccccc1-3)(C(C)C)C(C)C`, the emission maximum is 494 nm.

For `N#CSC1=CC2=C(c3c(Cl)cccc3Cl)c3cc(SC#N)c(NCc4ccccc4)n3[B-](F)(F)[N+]2=C1NCc1ccccc1`, the emission maximum is on record as 655 nm.

Turning to `CC1=CC(C)=[N+]2C1=C(C)c1cccn1[B-]2(F)F`, the emission maximum was 498 nm.

Compound `N#CC1=c2c3cccc4cccc(c43)n2[B-](F)(F)[n+]2ccccc21` had an emission maximum of 530 nm.

`c1ccc2nc3cccc(-c4ccc(-n5c6ccccc6c6ccccc65)cc4)c3cc2c1` came in with an emission maximum of 434 nm.

For the compound `COc1ccc(/C=N/c2cc(C(C)C)c(O)cc2C)cc1`, the emission maximum was 401 nm.

In the case of `CCN1C(=O)C(C2C(=O)c3c4ccccc4cc4cc5ccccc5c2c34)C(=O)N(CC)C1=S` (configuration not stated), the emission maximum is recorded as 544 nm.

As for `CC1=CC(C)=[N+]2C1=Cc1c3ccccc3c(C#Cc3ccsc3)n1[B-]2(F)F`, the emission maximum came out at 615 nm.

The data set is the same for the next values; noted with them: in CCCCCCCCO
As for `CC1=CC(C)=[N+]2C1=Cc1c3ccccc3c(C#Cc3ccsc3)n1[B-]2(F)F`, the emission maximum is recorded as 621 nm.

Staying with this data set, now noted: in CCCCO.
For the compound `COc1ccc(/C=N/c2cc(C(C)C)c(O)cc2C)cc1`, the emission maximum was 414 nm.

The same data set, now with this note: in CCCCOCCCC
`c1ccc2nc3cccc(-c4ccc(-n5c6ccccc6c6ccccc65)cc4)c3cc2c1`: the emission maximum was 442 nm.

The data set is the same for the next values; noted with them: in CCO.
Compound `COc1ccc2c(c1)CCc1c-2nc(N)c(C#N)c1-c1ccc(Br)cc1` registered an emission maximum of 419 nm.

With `N#CC(C#N)=Cc1ccc(-c2cccc(-c3nc4ccccc4s3)c2O)s1`, the emission maximum amounted to 630 nm.

`O=c1oc2ccccc2c(O)c1C(CC(O)c1ccc(-c2ccc(Br)cc2)cc1)c1ccccc1` (configuration not stated) registered an emission maximum of 392 nm.

`COc1ccc(/C=N/c2cc(C(C)C)c(O)cc2C)cc1`: the emission maximum is given as 414 nm.

Compound `CCOC(=O)c1cc(C(=O)OCC)c2ccc(O)cc2n1` yielded an emission maximum of 474 nm.

For `CN(C)CCN(Cc1c2ccccc2cc2ccccc12)c1ccc([N+](=O)[O-])cc1`, the emission maximum turned out to be 410 nm.

Still in this data set, the particulars now being: in CCOC(C)=O.
As to `N#CSC1=CC2=C(c3c(Cl)cccc3Cl)c3cc(SC#N)c(NCc4ccccc4)n3[B-](F)(F)[N+]2=C1NCc1ccccc1`, the emission maximum amounted to 654 nm.

`c1ccc2nc3cccc(-c4ccc(-n5c6ccccc6c6ccccc65)cc4)c3cc2c1` had an emission maximum of 460 nm.

Consider `Cc1ccc(C2=C3C=CC(c4ccccc4)=[N+]3[B-](F)(F)n3c(Cl)ccc32)cc1`, for which the emission maximum is listed as 551 nm.

In turn, `COc1ccc(/C=N/c2cc(C(C)C)c(O)cc2C)cc1` returned an emission maximum of 407 nm.

The compound `CC1=CC(C)=[N+]2C1=Cc1c3ccccc3c(C#Cc3ccsc3)n1[B-]2(F)F` showed an emission maximum of 616 nm.

Values taken from the Deep4Chem optical property database.
